Measurements from article PMC12281475, “Mediator Kinase Inhibitor Selectivity and Activity in Colorectal Cancer” (ACS Chemical Biology, 2025).

Tests used:
COLO205 cells = test: Promoter reporter panel (transient luciferase constructs), COLO205; type: cell-based, human; details: COLO205, 350 nM, 6 h
Method: Transcription factor activity was assayed in cell lines using 45 different plasmid reporter constructs encoding firefly luciferase under the control of a basal promoter element downstream of specific transcriptional response elements (Qiagen, Germany; Supporting Table S1). Firefly luciferase under the control of basal promoter element alone was used to establish the baseline signal and cotransfection of a construct expressing renilla luciferase from a CMV-promoter was used as a transfection control. Cells were reverse-transfected with reporter plasmids, compounds were added 42 h post transfection and reporter activity quantified following 6 h continuous exposure.
Transcription factor promoter reporter assays were carried out to define signalling pathways and biological processes modulated by CDK8/19 ligands. A panel of plasmid reporter constructs encoding firefly luciferase under the control of a basal promoter element with specific transcriptional response elements were used (Qiagen, Germany;
Firefly luciferase under the control of the minimal promoter element (TATA box) alone was used to establish the base-line signal and a construct expressing renilla luciferase from a CMV-promoter was used as a transfection control. COLO205 human colon cancer cells or SW620 parental and CRISPR KO cells were reverse-transfected with the panel of plasmid reporters in a 96 well plate format. The reporter mixes were prepared at 40:1 ratio of fLUC to rLUC plasmid at a final concentration of
100 ng/ml. For each well 1 ul plasmid was complexed with 1 ul Lipofectamine 2000
(Thermo Fisher Scientific, UK) in 50 ul OptiMEM (Thermo Fisher Scientific, UK) media
for 20 mins at room temperature. Cells were trypsinised and 50 ul of cells at 2e5
cells/ml in supplemented DMEM were added to the 50 ul of plasmid:lipofectamine
mixture in OptiMEM in a well of a 96-well white opaque flat bottom microtiter plate.
fLUC and rLUC were measured by the addition of 100 ul dual glo luciferase reagent
(Promega, USA). Reporter activity was quantified in untreated cells 48 hours post- […]

[1] = system: MED14 phosphorylation in COLO205 cells; test: CDK-phospho-motif immunoprecipitation and MED14 immunoblot, COLO205; type: cell-based, human; details: COLO205, 350 nM, 6 h
Text: In the absence of phospho-specific antibodies targeting these sites, we employed immunoprecipitation using CDK-phospho-motif antibodies followed by immunoblotting with a MED14 antibody to validate the observed reduction in MED14 phosphorylation. […] In contrast, phosphorylation of MED13 and MED26 was reduced in only 2 of 5 and 5 of 10 CDK-phospho-motif peptides, respectively (Figure E and Supporting Figure S2C). This heterogeneous phosphorylation pattern complicates validation using motif-based immunoprecipitation, as reductions at specific phospho-sites may be obscured by unchanged CDK-motif phosphorylation at other sites. […]
Cell monolayers were washed with PBS twice and lysed using a modified RIPA buffer, mRIPA (50 mM TRIS-HCl pH 7.4, 1% NP-40 substitute, 0.5% NaDOC, 150 mM NaCl, 1 mM EDTA, 0.02% SDS and 1:100 dilution of proteinase and phosphatase inhibitor cocktail, (#5872, Cell Signaling Technology) with overnight freezing at -80 °C and sonication of the cell pellet. Lysates were clarified by centrifugation and supernatants collected and protein concentration determined by a bicinchoninic acid (BCA) assay. […]
= biological repeats; * = phosphorylated residue). (B) STAT1SER727 phosphorylation in COLO205 or SW620 cell lysates detected using two different phospho-STAT1SER727-specific antibodies following treatment with 350 nM CCT251545 for 6 hours. […]

[2] = Plasma total concentration of compound (LC-MS/MS); type: in vivo, mice; details: 6 h after final dose
Method: for 20 mins at room temperature. […]
and body weights recorded. […]
quantification and pharmacodynamic biomarker analyses. All samples were stored […]
Plasma homogenates were extracted with 3 equivalent volumes of methanol containing olomoucine (500 nM) as an internal standard. Extracts were quantified for […]
ranging from 2 nM to 50 000 nM) with 4 quality control samples (25, 250,2500, and 7500 nM in duplicate) included at the beginning and the end of the analytical run.
Plasma homogenates were measured by LC−MS/MS on a Waters TQS following a separation on a Waters Acquity BEH C18 column (50 mm × 2.1 mm; 1.7 μm) with conditions of 0.1% formic acid (mobile phase A) and methanol (mobile phase B). The column was equilibrated at initial condition of 95% A and 5% B, linear gradient over 3 min to 100% B, held over 1 min, followed by linear gradient back to 5% B over 0.1 min, […]
mode by multiple reaction monitoring, 412.17 > 376.40at 33 eV for compound 109, […]
Phospho-proteome analyses
Adherent COLO205 cells were washed with PBS and cells lysed using urea lysis buffer (9 M Urea, 20 mM HEPES, pH 8.0, 1 mM beta-glycerophosphate, 1 mM sodium vanadate, 2.5 mM sodium pyrophosphate) and stored at -80 °C prior to analysis. The supernatants were reduced with 100 mM DTT for 30 minutes at 55 °C, followed by alkylation with 50 mM iodoacetimide for 15 minutes at ambient temperature in the dark. […]

[3] = system: phospho-STAT1^SER727 in SW620 tumor xenografts; test: Tumor phospho-STAT1 SER727 relative to total STAT1, electrochemiluminescent ELISA; type: in vivo, mice; details: 6 h after final dose
[4] = 14-20 days, 42 mg/kg p.o qd 5/7 days

Row | Structure (SMILES) | reduction of activity of TCF/LEF, SP1 and PAX6 reporter constructs (COLO205 cells) | WNT-regulated TCF/LEF reporter construct activity (COLO205 cells; p adj < 0.001) | MED14 phosphorylation (CDK-phospho-motif immunoprecipitation, MED14 immunoblot) [1] | plasma total concentrations, parent versus knockout clones ([2]; 14-20 days, 42 mg/kg p.o qd 5/7 days, exception CDK8-KO-cl2 (p < 0.05)) | plasma levels in parent versus individual knockout clones ([2]; 3 days, 42 mg/kg p.o. qd) | tumor phospho-STAT1 SER727, CDK8/19 clones [3, 4] | tumor phospho-STAT1 SER727, parent, CDK19 and CDK8 clones [3, 4] | tumor phospho-STAT1 SER727 levels, CDK8 and CDK8/19 knockouts ([3]; 3 days, 42 mg/kg p.o. qd, except CDK8-KO-cl2 (p < 0.05)) | tumor phospho-STAT1 SER727 levels, parent and CDK19 clones ([3]; 3 days, 42 mg/kg p.o. qd, p < 0.0001)
1 | Cn1cc(-c2ccc(-c3cncc(Cl)c3N3CCC4(CCNC4=O)CC3)cc2)cn1 [CCT251545] | > 1.5 fold | most significant decrease | decrease was evident |  |  |  |  |  | 
2 | Cn1ncc2cc(-c3cnc(N)c(Cl)c3N3CCC4(CCNC4=O)CC3)ccc21 [CCT251921] |  |  |  | no significant differences | no significant difference | not | significantly reduced | no significant change | significantly reduced
